Test results as given in US20260262643A1, “HERBICIDAL BENZOXAZINES” (FMC CORPORATION, priority 2022, published 2026).

Experiments:
[1] = system: pigweed, palmer; assay: Test A preemergence; format: in vivo, Amaranthus palmeri; conditions: visual injury after 10 days, 0 to 100 scale, 0 is no effect, 100 is complete control
In short: (§1)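 Visual injury ratings on a 0–100 scale (100 = complete control) versus untreated controls, taken 10 days after treatment in greenhouse. Preemergence: directed soil spray onto seeded loam/sand. Postemergence: foliar application at one- to two-leaf stage, plants 2–10 cm. Formulation: non-phytotoxic solvent plus surfactant.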

[2] = system: corn; assay: Test A postemergence; format: in vivo, Zea mays; conditions: postemergence, 10 days
In short: as §1

[3] = system: barnyardgrass; assay: Test A postemergence; format: in vivo, Echinochloa crusgalli; conditions: postemergence, 10 days
From the text: (§2) Seeds of plant species selected from barnyardgrass (Echinochloa crusgalli), blackgrass (Alopecurus myosuroides), corn (Zea mays), foxtail, giant (giant foxtail, Setaria faberi), goosegrass (Eleusine indica), kochia (Bassia scoparia), oat, wild (wild oat, Avena fatua), pigweed, palmer (palmer amaranth, palmer pigweed, Amaranthus palmeri), Pigweed, Redroot (redroot pigweed, Amaranthus retroflexus), ragweed (common ragweed, Ambrosia artemisiifolia), ryegrass, Italian (italian ryegrass, Lolium multiflorum), soybean (Glycine max), and wheat (Triticum aestivum) were planted into a blend of loam soil and sand and treated preemergence with a directed soil spray using test chemicals formulated in a non-phytotoxic solvent mixture which included a surfactant. At the same time, plants selected from these crops and weed species and also galium (catchweed bedstraw, Galium aparine) and horseweed (Erigeron canadensis) were planted in pots containing the same blend of loam soil and sand and treated with postemergence applications of test chemicals formulated in the same manner. Plants ranged in height from 2 to 10 cm and were in the one- to two-leaf stage for the postemergence treatment. Treated plants and untreated controls were maintained in a greenhouse for 10 days, after which time all treated plants were compared to untreated controls and visually evaluated for injury. Plant response ratings, summarized in Table A, are based on a 0 to 100 scale where 0 is no effect and 100 is complete control. A dash (-) response means no test result.

[4] = system: sedge, umbrella; assay: Test B flooded paddy test; format: in vivo, Cyperus difformis; conditions: 250 g ai/ha, Flood, 13 days, 0 to 100 scale (0 no effect, 100 complete control)
In short: (§3)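 Species grown to 2-leaf stage; pots flooded 3 cm above soil and compound applied directly to paddy water, depth maintained throughout. After 13 days in greenhouse, plants visually rated against controls on 0–100 scale (0 no effect, 100 complete control); dash means no result.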

[5] = system: ragweed; assay: Test A postemergence; format: in vivo, Ambrosia artemisiifolia; conditions: postemergence, 10 days
In short: as §1

[6] = system: ducksalad; assay: Test B flooded paddy test; format: in vivo, Heteranthera limosa; conditions: 250 g ai/ha, Flood, 13 days, 0 to 100 scale (0 no effect, 100 complete control)
In short: as §3

[7] = system: oat, wild; assay: Test A preemergence; format: in vivo, Avena fatua; conditions: visual injury after 10 days, 0 to 100 scale, 0 is no effect, 100 is complete control
In short: as §1

[8] = system: corn; assay: Test A preemergence; format: in vivo, Zea mays; conditions: visual injury after 10 days, 0 to 100 scale, 0 is no effect, 100 is complete control
In short: as §1

[9] = system: ryegrass, Italian; assay: Test A preemergence; format: in vivo, Lolium multiflorum; conditions: visual injury after 10 days, 0 to 100 scale, 0 is no effect, 100 is complete control
In short: as §1

[10] = system: rice; assay: Test B flooded paddy test; format: in vivo, Oryza sativa; conditions: 250 g ai/ha, Flood, 13 days, 0 to 100 scale (0 no effect, 100 complete control)
In short: as §3

[11] = system: pigweed, palmer; assay: Test A postemergence; format: in vivo, Amaranthus palmeri; conditions: postemergence, 10 days
In short: as §1

[12] = system: horseweed; assay: Test A postemergence; format: in vivo, Erigeron canadensis; conditions: postemergence, 10 days
In short: as §1

[13] = system: soybean; assay: Test A postemergence; format: in vivo, Glycine max; conditions: postemergence, 10 days
In short: as §1

[14] = system: blackgrass; assay: Test A preemergence; format: in vivo, Alopecurus myosuroides; conditions: visual injury after 10 days, 0 to 100 scale, 0 is no effect, 100 is complete control
In short: as §1

[15] = system: soybean; assay: Test A preemergence; format: in vivo, Glycine max; conditions: visual injury after 10 days, 0 to 100 scale, 0 is no effect, 100 is complete control
In short: as §1

[16] = system: kochia; assay: Test A postemergence; format: in vivo, Bassia scoparia; conditions: postemergence, 10 days
In short: as §1

[17] = system: wheat; assay: Test A preemergence; format: in vivo, Triticum aestivum; conditions: visual injury after 10 days, 0 to 100 scale, 0 is no effect, 100 is complete control
In short: as §1

[18] = system: blackgrass; assay: Test A postemergence; format: in vivo, Alopecurus myosuroides; conditions: postemergence, 10 days
In short: as §1

[19] = system: kochia; assay: Test A preemergence; format: in vivo, Bassia scoparia; conditions: visual injury after 10 days, 0 to 100 scale, 0 is no effect, 100 is complete control
In short: as §1

[20] = system: barnyardgrass; assay: Test A preemergence; format: in vivo, Echinochloa crusgalli; conditions: visual injury after 10 days, 0 to 100 scale, 0 is no effect, 100 is complete control
From the text: as §2

[21] = system: barnyardgrass; assay: Test B flooded paddy test; format: in vivo, Echinochloa crus-galli; conditions: 250 g ai/ha, Flood, 13 days, 0 to 100 scale (0 no effect, 100 complete control)
In short: as §3

[22] = system: ryegrass, Italian; assay: Test A postemergence; format: in vivo, Lolium multiflorum; conditions: postemergence, 10 days
In short: as §1

[23] = system: ragweed; assay: Test A preemergence; format: in vivo, Ambrosia artemisiifolia; conditions: visual injury after 10 days, 0 to 100 scale, 0 is no effect, 100 is complete control
In short: as §1

[24] = system: wheat; assay: Test A postemergence; format: in vivo, Triticum aestivum; conditions: postemergence, 10 days
In short: as §1

[25] = system: galium; assay: Test A postemergence; format: in vivo, Galium aparine; conditions: postemergence, 10 days
In short: as §1

[26] = system: oat, wild; assay: Test A postemergence; format: in vivo, Avena fatua; conditions: postemergence, 10 days
In short: as §1

[27] = 125 g ai/ha, 0 to 100 scale, 0 no effect, 100 complete control
[28] = 500 g ai/ha, visual injury, 0 to 100 scale (0 no effect, 100 complete control)

SMILES: C[C@H]1CN(C(=O)c2cc(C3CC3)cc(-n3cncn3)c2)c2cccc(Cl)c2O1 [Compound 136]
- Plant response rating, Pigweed, Palmer ([1]; 125 g ai/ha): 70
- Plant response rating, Pigweed, Palmer ([1]; 500 g ai/ha): 100
- Corn plant response rating [2, 27]: 30
- Plant response rating, Corn [2, 28]: 90
- Barnyardgrass plant response rating [3, 27]: 20
- Plant response rating, Barnyardgrass [3, 28]: 70
- Plant response rating, Sedge, Umbrella [4]: 0
- Ragweed plant response rating [5, 27]: 20
- Plant response rating, Ragweed [5, 28]: 30
- Plant response rating, Ducksalad [6]: 0
- Plant response rating, Oat, Wild ([7]; 125 g ai/ha): 20
- Plant response rating, Oat, Wild ([7]; 500 g ai/ha): 30
- Plant response rating, Corn ([8]; 125 g ai/ha): 0
- Plant response rating, Corn ([8]; 500 g ai/ha): 30
- Plant response rating, Ryegrass, Italian ([9]; 125 g ai/ha): 80
- Plant response rating, Ryegrass, Italian ([9]; 500 g ai/ha): 90
- Plant response rating, Rice [10]: 0
- Pigweed, Palmer plant response rating [11, 27]: 30
- Plant response rating, Pigweed, Palmer [11, 28]: 90
- Horseweed plant response rating [12, 27]: 0
- Plant response rating, Horseweed [12, 28]: 0
- Soybean plant response rating [13, 27]: 100
- Plant response rating, Soybean [13, 28]: 100
- Plant response rating, Blackgrass ([14]; 125 g ai/ha): 70
- Plant response rating, Blackgrass ([14]; 500 g ai/ha): 90
- Plant response rating, Soybean ([15]; 125 g ai/ha): 10
- Plant response rating, Soybean ([15]; 500 g ai/ha): 60
- Kochia plant response rating [16, 27]: 30
- Plant response rating, Kochia [16, 28]: 70
- Plant response rating, Wheat ([17]; 125 g ai/ha): 10
- Plant response rating, Wheat ([17]; 500 g ai/ha): 30
- Blackgrass plant response rating [18, 27]: 90
- Plant response rating, Blackgrass [18, 28]: 100
- Plant response rating, Kochia ([19]; 125 g ai/ha): 0
- Plant response rating, Kochia ([19]; 500 g ai/ha): 70
- Plant response rating, Barnyardgrass ([20]; 125 g ai/ha): 30
- Plant response rating, Barnyardgrass ([20]; 500 g ai/ha): 90
- Plant response rating, Barnyardgrass [21]: 0
- Ryegrass, Italian plant response rating [22, 27]: 60
- Plant response rating, Ryegrass, Italian [22, 28]: 90
- Plant response rating, Ragweed ([23]; 125 g ai/ha): 0
- Plant response rating, Ragweed ([23]; 500 g ai/ha): 20
- Wheat plant response rating [24, 27]: 20
- Plant response rating, Wheat [24, 28]: 30
- Galium plant response rating [25, 27]: 80
- Plant response rating, Galium [25, 28]: 100
- Oat, Wild plant response rating [26, 27]: 10
- Plant response rating, Oat, Wild [26, 28]: 30
